≈ marks a conversion by molar mass, not a printed value. Where two headings read alike, the source gives them in different places.
Tests used:
[1] = test system: Human breast adenocarcinoma cell MCF7; experiment: cells; conditions: for CC50: MCF7, read-out: LC50 (50% lethal concentration)
From the text: (§1) The in vitro anti-cancer test was primarily used to detect the effect of a candidate drug on cancer cell proliferation. The working principle involved therein is the ability of viable cells to shift alamarBlue (AbD Serotec, UK) from its originally non-fluorescent oxidized state (non-fluorescent, blue) to a reduced form (fluorescent, red) having fluorescence via metabolic reaction. According to the fluorescent data result generated by the alamarBlue reagent thus obtained, the proliferation of the viable cells and cell activity can be quantified for detection.
(§2) In the in vitro anti-cancer tests, a candidate drug was tested at 5 different concentrations of 0.01, 0.1, 1, 10, and 100 μg/ml, and six human cancer cell lines and a normal human cell line were used (see Table 10).

[2] = test system: Human histocytic lymphoma cell U937; experiment: cells; conditions: for CC50: U-937, read-out: LC50 (50% lethal concentration)
From the text: as §1, §2

[3] = test system: Human umbilical venal epithelial cell (HUVEC); experiment: in vitro; conditions: HUVEC; for IC50: Homo sapiens
From the text: as §1, §2

[4] = test system: Human hepatocellular carcinoma cell HepG2; experiment: cells; conditions: for CC50: HepG2, read-out: LC50 (50% lethal concentration)
From the text: as §1, §2

[5] = test system: Human promyelocytic leukemia cell HL-60; experiment: cells; conditions: for CC50: HL-60, read-out: LC50 (50% lethal concentration)
From the text: as §1, §2

in vitro = conditions: human
From the text: as §1, §2

[6] = test system: Human lung carcinoma cell A549; experiment: cells; conditions: for CC50: A549, read-out: LC50 (50% lethal concentration)
From the text: as §1, §2

[7] = test system: Human colon adenocarcinoma cell HT-29; experiment: cells; conditions: for CC50: HT-29, read-out: LC50 (50% lethal concentration)
From the text: as §1, §2

[8] = MCF7, read-out: IC50 (50% inhibition concentration)
[9] = HL-60, read-out: IC50 (50% inhibition concentration)
[10] = U-937, read-out: IC50 (50% inhibition concentration)
[11] = MCF7, read-out: IC50 (50% inhibition concentration), MCF-7
[12] = HepG2, read-out: IC50 (50% inhibition concentration), HepG2
[13] = HL-60, read-out: IC50 (50% inhibition concentration), HL-60
[14] = U-937, read-out: IC50 (50% inhibition concentration), U937
[15] = A549, read-out: IC50 (50% inhibition concentration), A549
[16] = HT-29, read-out: IC50 (50% inhibition concentration), HT-29
[17] = read-out: IC50 (50% inhibition concentration), HUVEC

CC(C)=CCC[C@]1(C)C[C@H](O)c2c(O)c3c(c(CC=C(C)C)c2O1)O[C@]12C(=C[C@@H]4CC1C(C)(C)O[C@]2(C/C=C(/C)C(=O)O)C4=O)C3=O (stereo in doubt) [Gh-2641-1, neogambogic acid]
IC50 [1, 8]: 0.2 µg/mL (≈ 0.309 µM) | CC50 [2]: 1 µg/mL (≈ 1.55 µM) | LC50 (50% lethal concentration) [3]: 4.3 µg/mL (≈ 6.65 µM)

CC(C)=CCC[C@@]1(C)C=Cc2c(O)c3c(c(CC(O)C(C)(C)O)c2O1)O[C@]12C(=C[C@@H]4CC1C(C)(C)OC2(C/C=C(/C)C(=O)O)C4=O)C3=O (stereo partly shown) [Gh-1036, epiformoxanthone F]
CC50 [1]: 3.8 µg/mL (≈ 5.73 µM) | CC50 [4]: 8.6 µg/mL (≈ 13 µM) | CC50 [5]: 3.1 µg/mL (≈ 4.68 µM) | CC50 (in vitro): 4.8 µg/mL (≈ 7.24 µM) | CC50 [2]: 0.81 µg/mL (≈ 1.22 µM) | CC50 [6]: 0.52 µg/mL (≈ 0.785 µM) | CC50 [7]: 12 µg/mL (≈ 18.1 µM)

C=C(C)C1CC[C@@]2(C)Oc3c(CC=C(C)C)c4c(c(O)c3[C@@H]1C2O)C(=O)C1=C[C@@H]2CC3C(C)(C)OC(C/C=C(/C)C(=O)O)(C2=O)[C@@]13O4 (stereo partly drawn) [Gh-1050, 3α-hydroxygambogellic acid]
IC50 [1, 8]: 0.14 µg/mL (≈ 0.217 µM) | CC50 [1]: 1 µg/mL (≈ 1.55 µM) | IC50 ([4]; HepG2, read-out: IC50 (50% inhibition concentration)): 1.1 µg/mL (≈ 1.71 µM) | CC50 [4]: 3.8 µg/mL (≈ 5.89 µM) | IC50 [5, 9]: 0.17 µg/mL (≈ 0.264 µM) | CC50 [5]: 7 µg/mL (≈ 10.9 µM) | CC50 (in vitro): 3.4 µg/mL (≈ 5.27 µM) | IC50 [2, 10]: 0.21 µg/mL (≈ 0.326 µM) | CC50 [2]: 2.3 µg/mL (≈ 3.57 µM) | IC50 ([6]; A549, read-out: IC50 (50% inhibition concentration)): 0.13 µg/mL (≈ 0.202 µM) | CC50 [6]: 0.74 µg/mL (≈ 1.15 µM) | IC50 ([7]; HT-29, read-out: IC50 (50% inhibition concentration)): 4.8 µg/mL (≈ 7.44 µM) | CC50 [7]: 7.7 µg/mL (≈ 11.9 µM) | IC50 ([3]; read-out: IC50 (50% inhibition concentration)): 0.78 µg/mL (≈ 1.21 µM)

CC(C)=CCC[C@]1(C)C=Cc2c(O)c3c(c(CC(O)C(C)(C)O)c2O1)O[C@]12C(=C[C@@H]4CC1C(C)(C)OC2(C/C=C(/C)C(=O)O)C4=O)C3=O (stereo partly shown) [Gh-1052, formoxanthone F]
CC50 [1]: 2.4 µg/mL (≈ 3.62 µM) | CC50 [4]: 4 µg/mL (≈ 6.04 µM) | CC50 [5]: 3.4 µg/mL (≈ 5.13 µM) | CC50 (in vitro): 3.1 µg/mL (≈ 4.68 µM) | CC50 [2]: 0.69 µg/mL (≈ 1.04 µM) | CC50 [6]: 2.5 µg/mL (≈ 3.77 µM) | CC50 [7]: 5.7 µg/mL (≈ 8.6 µM)

CC(C)=CCC[C@]1(C)C=Cc2c(O)c3c(c(CC=C(C)C)c2O1)O[C@]12C(=C[C@@H]4CC1C(C)(C)O[C@]2(C/C=C(/CO)C(=O)O)C4=O)C3=O [Gh-1601-A, 30-hydroxygambogic acid]
IC50 [1, 11]: 0.72 µg/mL (≈ 1.12 µM) | CC50 [1]: 4.4 µg/mL (≈ 6.82 µM) | IC50 [4, 12]: 1.3 µg/mL (≈ 2.02 µM) | CC50 [4]: 4.1 µg/mL (≈ 6.36 µM) | IC50 [5, 13]: 0.56 µg/mL (≈ 0.869 µM) | CC50 [5]: 3 µg/mL (≈ 4.65 µM) | IC50 [2, 14]: 0.09 µg/mL (≈ 0.14 µM) | CC50 [2]: 0.28 µg/mL (≈ 0.434 µM) | IC50 [6, 15]: 0.11 µg/mL (≈ 0.171 µM) | CC50 [6]: 6.6 µg/mL (≈ 10.2 µM) | IC50 [7, 16]: 0.17 µg/mL (≈ 0.264 µM) | CC50 [7]: 0.77 µg/mL (≈ 1.19 µM) | IC50 [3, 17]: 0.19 µg/mL (≈ 0.295 µM)

CC(C)=CCC[C@@]1(C)C=Cc2c(O)c3c(c(CC=C(C)C)c2O1)O[C@]12C(=C[C@@H]4CC1C(C)(C)O[C@]2(C/C=C(/CO)C(=O)O)C4=O)C3=O [Gh-1602, 30-hydroxyepigambogic acid]
IC50 [1, 11]: 0.27 µg/mL (≈ 0.419 µM) | CC50 [1]: 4 µg/mL (≈ 6.2 µM) | IC50 [4, 12]: 1.3 µg/mL (≈ 2.02 µM) | CC50 [4]: 3.5 µg/mL (≈ 5.43 µM) | IC50 [5, 13]: 1 µg/mL (≈ 1.55 µM) | CC50 [5]: 3.3 µg/mL (≈ 5.12 µM) | IC50 [2, 14]: 0.14 µg/mL (≈ 0.217 µM) | CC50 [2]: 0.69 µg/mL (≈ 1.07 µM) | IC50 [6, 15]: 0.4 µg/mL (≈ 0.62 µM) | CC50 [6]: 3.7 µg/mL (≈ 5.74 µM) | IC50 [7, 16]: 0.94 µg/mL (≈ 1.46 µM) | CC50 [7]: 4.2 µg/mL (≈ 6.51 µM) | IC50 [3, 17]: 0.25 µg/mL (≈ 0.388 µM)

CC(C)=CCC[C@]1(C)C=Cc2c(O)c3c(c(CC=C(C)C)c2O1)O[C@]12C(=C[C@@H]4CC1C(C)(C)O[C@]2(C/C=C(\C)C(=O)O)C4=O)C3=O [Gh-1641, isogambogic acid]
IC50 [5, 9]: 8 µg/mL (≈ 12.7 µM) | CC50 [6]: 3 µg/mL (≈ 4.77 µM) | LC50 (50% lethal concentration) [3]: 1.3 µg/mL (≈ 2.07 µM)

CC(C)=CCC[C@@]1(C)C=Cc2c(O)c3c(c(CC=C(C)C)c2O1)O[C@]12C(=C[C@@H]4CC1C(C)(C)O[C@]2(C/C=C(\C)C(=O)O)C4=O)C3=O [Gh-1642, epiisogambogic acid]
IC50 [5, 9]: 6 µg/mL (≈ 9.54 µM) | LC50 (50% lethal concentration) [3]: 1.3 µg/mL (≈ 2.07 µM)

CC(C)=CCc1c2c(c(O)c3c1O[C@]14C(=C[C@@H]5CC1C(C)(C)O[C@]4(C/C=C(\C)C=O)C5=O)C3=O)C=CC(C)(C)O2 [Gh-2501, isomorellin]
IC50 [5, 9]: 1 µg/mL (≈ 1.84 µM) | CC50 [5]: 4 µg/mL (≈ 7.34 µM) | IC50 [2, 10]: 0.9 µg/mL (≈ 1.65 µM) | CC50 [7]: 4 µg/mL (≈ 7.34 µM) | LC50 (50% lethal concentration) [3]: 1.8 µg/mL (≈ 3.3 µM)

CC(C)=CCC/C(C)=C/Cc1c(O)c(CC=C(C)C)c2c(c1O)C(=O)C1=C[C@@H]3CC4C(C)(C)O[C@](C/C=C(/C)C(=O)O)(C3=O)[C@@]14O2 [Gh-2505, gambogenic acid]
LC50 (50% lethal concentration) [3]: 2.3 µg/mL (≈ 3.65 µM)

C=C(C)[C@@H]1CC[C@@]2(C)CC1c1c(O)c3c(c(CC=C(C)C)c1O2)O[C@]12C(=C[C@@H]4CC1C(C)(C)O[C@]2(/C=C/C(C)C(=O)O)C4=O)C3=O (stereo partly drawn) [Gh-2507, β-epigambogellic acid]
IC50 [5, 9]: 0.2 µg/mL (≈ 0.318 µM) | LC50 (50% lethal concentration) [3]: 21.0 µg/mL (≈ 33.4 µM)

— patent US20110305784A1, “Fractionated products obtained from gamboge resin, and medical uses of the same” (priority 2010, published 2011)
